This is an account of results in patent US20090099192A1, “Substituted 1H-pyrrole-2,5-diones” (Bayer CropScience AG, priority 2004, published 2009).

The structures appear in SMILES notation.

Data set [1] concerns caterpillars of the army worm (Spodoptera frugiperda). Put plainly: Spodoptera frugiperda test (cabbage leaves dipped). Format: in vivo. The conditions noted are these: for Kill rate in % after 7 d: 500 ppm, leaf dip, Brassica oleracea. On the procedure: (§1) [table] To produce a suitable preparation of active compound, 1 part by weight of active compound is mixed with the stated amount of solvent and the stated amount of emulsifier, and the concentrate is diluted with emulsifier-containing water to the desired concentration. Cabbage leaves (Brassica oleracea) are treated by being dipped into the active compound preparation of the desired concentration and populated with caterpillars of the army worm (Spodoptera frugiperda) while the leaves are still moist. After the desired period of time, the kill in % is determined. 100% means that all caterpillars have been killed; 0% means that none of the caterpillars have been killed.

Another data set has as its system Meloidogyne incognita. Put plainly: Meloidogyne test (gall formation on lettuce roots). Format: in vivo. The conditions noted are these: for Kill rate in % after 14 d (nematicidal effect by gall formation): 20 ppm, lettuce in sand. On the procedure:
[table] To produce a suitable preparation of active compound, 1 part by weight of active compound is mixed with the stated amounts of solvent and emulsifier, and the concentrate is diluted with water to the desired concentration. Vessels are filled with sand, active compound solution, Meloidogyne incognita egg/larvae suspension and lettuce seeds. The lettuce seeds germinate and the plants develop. On the roots, galls are formed. After the desired period of time, the nematicidal effect is determined in % by means of gall formation. 100% means that no galls were found; 0% means that the number of galls on the treated plants corresponds to that of the untreated control.

Data set [2] in a line: logP determination by HPLC on reversed-phase column (C 18), EEC Directive 79/831 Annex V.A8. Conditions: reversed-phase C 18, 43° C., acid range (0.1% aqueous phosphoric acid, acetonitrile), marked a). Format: physicochemical. A digest of the protocol: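 Reversed-phase C18 HPLC at 43° C, per EEC Directive 79/831 Annex V.A8, acid range: 0.1% aqueous phosphoric acid with linear 10–90% acetonitrile gradient. logP derived from retention time by linear interpolation between calibrating unbranched alkan-2-ones (C3–C16) of known logP.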

The test system of data set [3] is common spidermite (Tetranychus urticae). Put plainly: Tetranychus test. Format: in vivo. Conditions: for Kill rate in % after 5 d: 500 ppm, spray, Phaseolus vulgaris disks. On the procedure: To produce a suitable preparation of active compound, 1 part by weight of active compound is mixed with the stated amounts of solvent and emulsifier, and the concentrate is diluted with emulsifier-containing water to the desired concentration.
Disks of beans (Phaseolus vulgaris), which are infested by all stages of the common spidermite (Tetranychus urticae) are sprayed with an active compound preparation of the desired concentration.
After the desired period of time, the effect in % is determined. 100% means that all spidermites have been killed; 0% means that none of the spidermites have been killed.

Data set [4] relates to larvae of the mustard beetle (Phaedon cochleariae). Put plainly: Phaedon test (spray treatment). Format: in vivo. Conditions: for Kill rate in % after 7 d: 500 g/ha, spray, Brassica pekinensis disks. As to the method: (§2) [table] To produce a suitable preparation of active compound, 1 part by weight of active compound is mixed with the stated amounts of solvents and emulsifier, and the concentrate is diluted with emulsifier-containing water to the desired concentration. Disks of Chinese cabbage (Brassica pekinensis) are sprayed with an active compound preparation of the desired concentration and, after drying, populated with larvae of the mustard beetle (Phaedon cochleariae). After the desired period of time, the effect in % is determined. 100% means that all beetle larvae have been killed; 0% means that none of the beetle larvae have been killed.

The subject of data set [5] is green peach aphid (Myzus persicae). Put plainly: Myzus test - oral. The format is in vivo. The conditions noted are these: for Kill rate in % after 6 d: 100 ppm, oral (sucking). On the procedure: [table] To produce a suitable preparation of active compound, 1 part by weight of active compound is mixed with the stated amounts of solvent, and the concentrate is diluted with water to the desired concentration. Vessels are populated with all stages of the green peach aphid (Myzus persicae), which are treated by sucking on the active compound preparation of the desired concentration. After the desired period of time, the effect in % is determined. 100% means that all aphids have been killed; 0% means that none of the aphids have been killed.

The subject of data set [6] is caterpillars of the army worm (Spodoptera frugiperda). The experiment in a line: Spodoptera frugiperda test (corn leaf disks sprayed). The format is in vivo. The conditions noted are these: for Kill rate in % after 7 d: 500 g/ha, spray, Zea mays leaf disks. On the procedure: as §2, with “corn leaves (Zea mays)” for “Chinese cabbage (Brassica pekinensis)”, “caterpillars” for “larvae”, “army worm (Spodoptera frugiperda).” for “mustard beetle (Phaedon cochleariae).”, “caterpillars” for “beetle larvae”

Data set [7] concerns green peach aphid (Myzus persicae). The experiment in a line: Myzus test (spray treatment, Brassica pekinensis). Format: in vivo. Conditions: for Kill rate in % after 5 d: 500 g/ha, spray, Brassica pekinensis disks. As to the method: as §2, with “pekinensis) which are infested by all stages of the green peach aphid (Myzus persicae)” for “pekinensis)”, “concentration.” for “concentration and, after drying, populated with larvae of the mustard beetle (Phaedon cochleariae).”, “aphids” for “beetle larvae”

For data set [8], the system named is larvae of the mustard beetle (Phaedon cochleariae). Put plainly: Phaedon larvae test (cabbage leaves dipped). The format is in vivo. On the procedure:
as §1, with “with” for “with emulsifier-containing”, “with larvae” for “with caterpillars”, “the mustard beetle (Phaedon cochleariae)” for “the army worm (Spodoptera frugiperda)”, “all beetle larvae” for “all caterpillars”, “the beetle larvae” for “the caterpillars”

Consider `O=C1C(O)=C(c2ccc(C(F)(F)F)cc2)C(=O)N1c1ccc(OC(F)(F)F)cc1` [Example 10], for which, in data set [1], the “activity in the Spodoptera frugiperda test (leaf dip)” value (“activity … (leaf dip)” below) is recorded as “good activity” and the “Kill rate in % after 7 d” value stood at 100%. For the same compound, in the data set with Meloidogyne incognita, the “activity in the Meloidogyne test” value is on record as “good activity” and the “Kill rate in % after 14 d (nematicidal effect by gall formation)” value is on record as 99%. Also, in data set [2], the logP result is “logP = 3.64^a)”.
With `O=C1C(O)=C(c2cc(Cl)cc(Cl)c2)C(=O)N1c1ccc(Cl)cc1` [Example 11], in data set [1], the “activity … (leaf dip)” value was “good activity” and the “Kill rate in % after 7 d” value was 100%. The logP result in data set [2] is on record as “logP = 3.27^a)”.
The corresponding values for `O=C1C(O)=C(c2ccc(OC(F)(F)F)cc2)C(=O)N1c1ccc(C(F)(F)F)cc1` [Example 12] are “good activity”, 100% and “logP = 3.97^a)”.
On to `O=C1C(O)=C(c2ccc(C(F)(F)F)cc2)C(=O)N1c1ccc(C(F)(F)F)cc1` [Example 13], for which, in data set [1], the “activity … (leaf dip)” value is reported as “good activity” and the “Kill rate in % after 7 d” value came out at 100%. Moreover, the logP result in [2] is listed as “logP = 3.51^a)”.
Turning to `O=C1C(O)=C(c2ccc(F)cc2C(F)(F)F)C(=O)N1C1CCCC(C(F)(F)F)C1` (centres unmarked) [Example 192], in [3], the “activity in the Tetranychus test” value is reported as “good activity” and the “Kill rate in % after 5 d” value is listed as 90%. In addition, in data set [2], the logP result is listed as “logP = 3.56^a)”. Further, in data set [4], the “activity in the Phaedon test (spray treatment)” value (“activity in the Phaedon test” below) was “good activity” and the “Kill rate in % after 7 d” value came out at 100%. In addition, the “activity in the Myzus test - oral” value in data set [5] is recorded as “good activity”.
On to `CC(C)C1CCCC(N2C(=O)C(O)=C(c3ccccc3Cl)C2=O)C1` (centres unmarked) [Example 195], for which, in [4], the “activity in the Phaedon test” value is “good activity” and the “Kill rate in % after 7 d” value was 100%. Besides, in data set [5], the “activity in the Myzus test - oral” value is “good activity” and the “Kill rate in % after 6 d” value turned out to be 100%. Moreover, in data set [6], the “activity in the Spodoptera frugiperda test (spray)” value (“activity … (spray)” below) was “good activity” and the “Kill rate in % after 7 d” value turned out to be 100%.
Turning to `CC1CCCC(N2C(=O)C(O)=C(c3ccccc3Cl)C2=O)C1` (centres unmarked) [Example 196], in data set [2], the logP entry is “logP = 3.57^a)”. Also, in data set [4], the “activity in the Phaedon test” value was “good activity” and the “Kill rate in % after 7 d” value stood at 100%. For the same compound, in data set [5], the “activity in the Myzus test - oral” value is recorded as “good activity” and the “Kill rate in % after 6 d” value came out at 100%. For the same compound, in [6], the “activity … (spray)” value was “good activity” and the “Kill rate in % after 7 d” value amounted to 100%.
For `CCOCOC1=C(c2ccccc2Cl)C(=O)N(C2CCCC(C(F)(F)F)C2)C1=O` (centres unmarked) [Example 202], in data set [7], the “activity in the Myzus test (spray, Brassica pekinensis)” value is reported as “good activity” and the “Kill rate in % after 5 d” value was 80%. Moreover, in [3], the “activity in the Tetranychus test” value is “good activity” and the “Kill rate in % after 5 d” value is listed as 80%. In [2], the logP result was “logP = 4.53^a)”. Besides, in data set [4], the “activity in the Phaedon test” value is on record as “good activity” and the “Kill rate in % after 7 d” value came out at 100%. Also, in data set [6], the “activity … (spray)” value was “good activity” and the “Kill rate in % after 7 d” value is 100%.
`O=C1C(O)=C(c2ccccc2Cl)C(=O)N1C1CCCCC1C(F)(F)F` (centres unmarked) [Example 205]: the logP result in [2] is listed as “logP = 3.27^a)”. Moreover, in [4], the “activity in the Phaedon test” value is on record as “good activity” and the “Kill rate in % after 7 d” value amounted to 100%. Further, the “Kill rate in % after 6 d” value in [5] was 100%.
As for `CC(C)(C)C(=O)OC1=C(c2ccccc2Cl)C(=O)N(C2CCC(C(F)(F)F)CC2)C1=O` (centres unmarked) [Example 207], in data set [7], the “activity in the Myzus test (spray, Brassica pekinensis)” value is reported as “good activity” and the “Kill rate in % after 5 d” value is 100%. In addition, in data set [3], the “Kill rate in % after 5 d” value came to 90%. Besides, the logP entry in data set [2] was “logP = 5.31^a)”. Further, in data set [4], the “activity in the Phaedon test” value was “good activity” and the “Kill rate in % after 7 d” value is 100%.
With `O=C1C(O)=C(c2cc(Cl)cc(Cl)c2)C(=O)N1C1CCC(C(F)(F)F)CC1` (centres unmarked) [Example 212], the “activity … (leaf dip)” value in data set [1] is “good activity”. In addition, the “Kill rate in % after 7 d” value amounted to 100% in data set [1]; 100% in [4]; 100% in [8] (500 ppm, leaf dip, Brassica oleracea); 100% in data set [6]. Further, the logP entry in [2] is reported as “logP = 4.48^a)”. Further, in [4], the “activity in the Phaedon test” value is recorded as “good activity”. In addition, the “activity in the Phaedon larvae test” value in data set [8] is “good activity”. In addition, the “activity … (spray)” value in data set [6] was “good activity”.
With `O=C1C(O)=C(c2ccccc2C(F)(F)F)C(=O)N1C1CCCC(C(F)(F)F)C1` (centres unmarked) [Example 217], in data set [7], the “activity in the Myzus test (spray, Brassica pekinensis)” value is given as “good activity” and the “Kill rate in % after 5 d” value turned out to be 100%. In addition, in data set [4], the “activity in the Phaedon test” value is listed as “good activity” and the “Kill rate in % after 7 d” value is reported as 100%. Further, in data set [5], the “activity in the Myzus test - oral” value is on record as “good activity” and the “Kill rate in % after 6 d” value was determined as 100%. Moreover, in data set [6], the “activity … (spray)” value is listed as “good activity” and the “Kill rate in % after 7 d” value is 100%.
For `O=C1C(O)=C(c2ccccc2I)C(=O)N1C1CCCC(C(F)(F)F)C1` (centres unmarked) [Example 219], in data set [7], the “activity in the Myzus test (spray, Brassica pekinensis)” value is reported as “good activity” and the “Kill rate in % after 5 d” value was 90%. Also, in data set [4], the “activity in the Phaedon test” value is recorded as “good activity” and the “Kill rate in % after 7 d” value amounted to 100%. For the same compound, in data set [5], the “activity in the Myzus test - oral” value is listed as “good activity” and the “Kill rate in % after 6 d” value is on record as 100%. In [6], the “activity … (spray)” value is “good activity” and the “Kill rate in % after 7 d” value is reported as 100%.
For the compound `CC(C)(C)C(=O)OC1=C(c2ccccc2C(F)(F)F)C(=O)N(C2CCCC(C(F)(F)F)C2)C1=O` (centres unmarked) [Example 220], in data set [7], the “activity in the Myzus test (spray, Brassica pekinensis)” value is reported as “good activity” and the “Kill rate in % after 5 d” value was determined as 100%. For the same compound, in the data set on Meloidogyne incognita, the “activity in the Meloidogyne test” value is listed as “good activity” and the “Kill rate in % after 14 d (nematicidal effect by gall formation)” value is on record as 80%. In addition, in [4], the “activity in the Phaedon test” value was “good activity” and the “Kill rate in % after 7 d” value was 100%.
As to `CC(C)(C)C(=O)OC1=C(c2ccccc2I)C(=O)N(C2CCCC(C(F)(F)F)C2)C1=O` (centres unmarked) [Example 221], in data set [7], the “activity in the Myzus test (spray, Brassica pekinensis)” value was “good activity” and the “Kill rate in % after 5 d” value is given as 100%. Besides, in data set [3], the “activity in the Tetranychus test” value is recorded as “good activity” and the “Kill rate in % after 5 d” value amounted to 80%. In data set [4], the “activity in the Phaedon test” value is reported as “good activity” and the “Kill rate in % after 7 d” value turned out to be 100%.
